According to patent US20240216320A1, “COMPOSITIONS AND METHODS FOR TREATING SICKLE CELL DISEASE” (Augusta University Research Institute, Inc., priority 2019, published 2024):

Columns and labels:
[1] = system: γ-globin mRNA in K562 cells; assay: γ-globin transcription by RT-qPCR in K562 cells; assay type: cell-based; settings: 48 h; for increase in γ-globin mRNA levels: 0.125 mM
Method: Initial studies were conducted in K562 cells to determine the ability of AN-233 to induce γ-globin transcription and HbF expression. K562 cells display characteristics of erythroid cells including expression of the ε, γ and α globin genes and these cells are useful for initial drug screening and discovery of potential HbF inducers.
K562 cells were treated with AN-233 for 48 h and globin gene transcription was analyzed by RT-qPCR. […]
(§1) K562 cells were cultured in Iscove's Modified Dulbecco medium (IMDM) with 10% fetal bovine serum, penicillin (100 U/mL) and streptomycin (0.1 mg/mL). Drug inductions for K562 cells were conducted for 48 h and cell viability evaluated with 0.4% Trypan blue exclusion. Cell counts were performed a dual chamber apparatus and the percentage viability obtained using an Automated Cell Counter (Bio-Rad).
Total RNA was extracted from cells using Trizol (Ambion, Carlsbad CA) and analyzed by RT-qPCR as previously published by our group. Gene-specific primers were used to quantify mRNA levels for γ-globin, β-globin and internal control glyceraldehyde-3-phosphate de-hydrogenase (GAPDH). All mRNA levels were normalized to GAPDH before analysis.

[2] = system: HbF in sickle erythroid precursors; assay: F-cells and HbF MFI by flow cytometry in sickle erythroid precursors; assay type: cell-based, human
Method: (§2) For primary cultures, erythroid precursors were generated from peripheral blood mononuclear cells isolated from discard blood of sickle patients under an IRB exempt protocol. These cells were cultured in a two-phase liquid culture system previously published (Li, B., et al., Haematologica 103:e384-e387 (2018)).
(§3) During phase 1, cells were grown in Iscove's Dulecco Media with 15% fetal bovine serum, 15% human AB serum, 10 ng/mL interleukin-3, 50 ng/mL stem cell factor and 2 IU/mL of erythropoietin (Peprotech, Rocky Hill NJ). Phase 2 of culture initiated on day 7 with a similar medium without stem cell factor and interleukin-3. On day 8, erythroid precursors were treated with AN-233 (0.125 mM and 0.25 mM), ethanol (EtOH; […] and 0.016%) and the positive control HU (100 μM) for 48 h and harvested for the various analyses.
(§4) To measure percent HbF positive cells (F-cells), K562 cells and erythroid precursors were fixed with 1% formaldehyde, permeabilized with ice-cold acetone:methanol (4:1 ratio) and stained with fluorescein isothiocyanate (FITC) anti-HbF antibody (ab19365, Abcam Cambridge MA) and isotype control IgG antibody (MBS524511, MyBioSource, San Diego CA) was used to detect non-specific staining. The F-cells levels and HbF protein levels measured by mean fluorescence intensity (MFI) were analyzed on an LSR-II flow cytometer (BD Biosciences, San Jose CA) and FlowJo analysis to generate quantitative data.

β-YAC transgenic mice = assay: Toxicity, body weight, blood counts and reticulocytes in β-YAC transgenic mice; settings: β-YAC mice
Method: The β-YAC is a transgenic mouse model containing the full-length 81 kb human β-globin gene locus including the LCR and surrounding region. The five functional human globin genes 5′-ε-Gγ-Aγ-[…]-β-3′ are present and undergo normal developmental regulation with the γ-globin gene silenced shortly after birth. β-YAC mice (5-6 months old) were administered AN-233 suspended in water (200 or 300 mg/kg) 5 days/week for 4 weeks by intraperitoneal injection; five mice per group with 3 males and 2 females were treated. Hydroxyurea (100 mg/kg) was included as a positive control. Blood was collected by tail bleed at week 0, 2 and 4 and analyzed for automated complete blood counts with differential using a Micros 60 machine (HORIBA Medical/ABX Diagnostics). The level of F-cells and MFI were performed by flow cytometry. For reticulocyte counts, whole blood was stained with acridine orange and flow cytometry performed on an LSR-II flow cytometer (BD Biosciences).

[3] = system: sickle erythroid precursors; assay: In vitro sickling assay under 2% oxygen; assay type: cell-based, human
Method: In vitro sickling studies were conducted as previously published by our group (Zhu, X., et al., Blood, 131:558-562 (2018)). Briefly, after drug inductions of sickle erythroid pre-cursors for 48 h, cells were incubated in 2% oxygen overnight and then fixed with 2% formaldehyde. Erythroid morphology was evaluated microscopically and the number of sickled cells per high power field manually counted for 1000 cells, per triplicates per condition.

HbF in K562 cells [4] = assay: HbF positive cells (F-cells) by flow cytometry in K562 cells; assay type: cell-based; settings: pretreatment with SB203580 10 μM followed by 0.25 mM AN-233
Method: as §1, §4

[5] = system: HbF in sickle erythroid precursors; assay: Western blot of HbF in sickle erythroid precursors; assay type: cell-based, human; settings: SB203580 treatment with 0.25 mM AN-233
Method: as §2, §3
Western blot analysis was performed using whole cell lysates generated with RIPA buffer (ThermoScientific, Rockford, IL) supplemented with proteinase and phosphatase inhibitor cocktails. For histone acetylation studies, nuclear lysates were prepared by suspending cells in buffer containing 20 mM HEPES, pH 7.9, 50 mM KCl, 420 mM NaCl, 0.1 mM EDTA, 1 mM DTT, 10% glycerol and protease inhibitor mixture for 30 min, followed by centrifugation. […]

[6] = system: HbF in patients with β-thalassemia; settings: cited from earlier work
HbF in K562 cells [7] = assay: Western blot of HbF levels in K562 cells; assay type: cell-based; settings: 48 h, AN-233 dose-dependent
Method: as §1
Western blot analysis was performed using whole cell lysates generated with RIPA buffer (ThermoScientific, Rockford, IL) supplemented with proteinase and phosphatase inhibitor cocktails. For histone acetylation studies, nuclear lysates were prepared by suspending cells in buffer containing 20 mM HEPES, pH 7.9, 50 mM KCl, 420 mM NaCl, 0.1 mM EDTA, 1 mM DTT, 10% glycerol and protease inhibitor mixture for 30 min, followed by centrifugation. Antibodies against HbF (51-7), HbA (37-8), and Tata binding protein (TBP; N-12) were purchased from Santa Cruz Biotechnology (Dallas TX); antibodies against β-actin (A5316) and rabbit IgG (18140) were purchased from Sigma (St. Louis MO). Acetylated histone H3 (AcH3; 06-599) and AcH4 (06-866) antibodies were purchased from Millipore (Burlington, MA).

[8] = system: intracellular heme in K562 cells; assay: QuantiChrom heme quantitation assay in K562 cells; assay type: cell-based; settings: ALA 0.5 and 2.0 mM, hemin 75 μM
Method: The total cellular heme content was determined using the QuantiChrom™ Heme Assay Kit (DIHM-250, BioAssay Systems, Hayward, CA) per the manufacturer's instructions. Briefly, 25 μL of cellular lysate was mixed with 100 μL of detection reagent. The mixture was incubated at room temperature for 5 min followed by measuring the absorbance at 400 nm on a microplate reader. The total heme concentration was calculated based on a formula provided by the manufacturer: Heme concentration=(OD^sample−OD^blank)/(OD^calibrator−OD^blank)×125× dilution factor. This value was normalized by total protein in each sample.

## NC(=O)NO [HU, hydroxyurea]
[1]; HU control
  γ-globin mRNA induction: 1.7 fold
[2]; sickle erythroid precursors, HU 100 μM
  HbF measured by MFI, compared with AN-233: comparable
β-YAC transgenic mice; 4-week treatment, AN-233 at both doses, HU 100 mg/kg
  blood counts (Hb, hematocrit, white blood cells, platelets): decreased total Hb, hematocrit, and white blood cell and platelet counts
β-YAC transgenic mice; HU 100 mg/kg ip, week 4, p=0.002
  increase in reticulocytes: 1.9 fold
β-YAC transgenic mice; ip, 4 weeks of treatment, all groups
  body weights: normal body weights were maintained
[3]; 2% oxygen overnight, HU
  anti-sickling effect, compared with AN-233: similar

## C[S+]([O-])c1ccc(-c2nc(-c3ccncc3)c(-c3ccc(F)cc3)[nH]2)cc1 (centres unmarked) [SB203580, reference compound]
HbF in K562 cells [4]
  decrease in F-cell levels: 30%
[2]; SB203580 pretreatment, at both AN-233 concentrations
  effect of pretreatment on F-cells and MFI: reduced F-cells and MFI levels
[5]
  effect on AN-233 HbF protein increase by Western blot: inhibited
[3]; SB203580 pretreatment before AN-233, 2% oxygen
  sickled erythroid progenitor levels after pretreatment: higher sickled erythroid progenitor levels

## CCC(C)(C)C(=O)[O-].[Na+] [sodium dimethylbutyrate]
[6]
  patients with HbF induction: 70 % of patients

## CCCC(=O)O [BA, butyric acid]
[1]
  increase in γ-globin mRNA levels: 3 fold
HbF in K562 cells [7]
  increase in HbF by Western blot: 2 fold

## NCC(=O)CCC(=O)O [ALA, δ-aminolevulinate]
[1]
  increase in γ-globin mRNA levels: 1.5 fold
[8]
  heme levels in control experiments: increased heme levels
HbF in K562 cells [7]
  increase in HbF by Western blot: 6 fold

## hemin [reference compound]
[8]
  heme levels in control experiments: increased heme levels
